Data set [1] can be described thus: SPR glucose detection on immobilized GGBP sensor surfaces (BIACORE). Format: binding. Conditions: for glucose detection by SPR using thiol-coupled mutants (FIG. 8): 0.1 mM and 1 mM glucose, thiol-coupled surfaces; for SPR Signal, Buffer: running buffer injection. How it is done:
Proteins were immobilized onto a carboxymethyldextran (CM5) sensor surface (BIACORE) by thiol coupling using standard thiol coupling chemistry with a flow rate of 5 μl/min in 10 mM HEPES pH 7.4, 150 mM NaCl, 0.05% BIACORE Surfactant P20 (BIAcore) (HBS-P) running buffer. The sensor surface was activated with a 2 minute pulse of […] (EDC/NHS) followed by a 4 min pulse of 80 mM 2-(2-pyridinyldithio) ethaneamine (PDEA), 0.1 M sodium borate pH 8.5, E149C GGBP (1.8 mg/ml) was injected at a 1:50 dilution in 10 mM sodium acetate pH 4.5 for various times. Carbonic anhydrase 11 (5 mg/ml) was injected at 1:10 dilution in 10 mM sodium acetate pH 4.5 for 20 minutes. G74C GGBP (2.6 mg/ml) was injected at 1:50 dilution in 10 mM sodium acetate pH 4.5 for 12 minutes. A213C GGBP (0.6 mg/ml) was injected at 1:20 dilution in 10 mM sodium acetate pH 4.5 for 2 4 minutes. A 4 minute pulse of 50 mM cysteine, 1 M NaCl, 0.1 M sodium formate pH 4.3 was used to quench the reaction and remove non-specifically bound protein from the surface. Following immobilization, the protocol DESORB (0.5% SDS, 50 mM glycine pH 9.5) was run to remove protein aggregates from the system. Surfaces of 3000 RU (E149C GGBP), 4500 RU (carbonic anydrase), 2000 RU (A213C GGBP), and 4000 RU (G74C GGBP) were used for experiments.
Proteins were immobilized onto a Carboxymethyldextran (CM5) sensor surface (BIAcore) by amine coupling using standard amine coupling chemistry with a flow rate of 5 μl/min in HBS-P running buffer. The surface was activated with a 7 minute pulse of EDC/NHS. Proteins (WT GGBP, 2 mg/ml; E149C GGBP, 1.8 mg/ml) were injected at a 1:50 dilution in 10 mM sodium acetate pH 4.5 for 20 minutes. A pulse of 1 M ethanolamine pH 8.0 was injected to quench the reaction and remove nonspecifically bound protein. Surfaces of 4800 RU for E149C and 2400 RU for wild type GGBP were used for experiments.
Thiol coupling of E149C GGBP on C1 surfaces was carried out as follows. E149C GGBP was immobilized on a carboxymethyl (C1) chip using standard thiol coupling chemistry with a flow rate of 5 μl/min in HBS-P running buffer. The C1 surface was activated with a 4 min pulse of EDC/NHS followed by a 4 min pulse of 80 mM PDEA of 0.1 M sodium borate pH 8.5. E149C GGBP (1.8 mg/ml) was injected at a 1:2 dilution in 10 mM sodium acetate pH 4.5 for 50 minutes at a flow rate of 1 μl/min. A 7 minute pulse of 50 mM cysteine, 1M NaCl, 0.1 M sodium formate pH 4.3 was used to quench the reaction and remove non-specifically bound protein from the surface. A surface of 9000 RU was used for experiments.
Amine coupling of E149C GGBP on C1 surfaces. E149C GGBP was immobilized on a C1 chip using standard amine coupling chemistry with a flow rate of 5 μl/min in HBS-P running buffer. The surface was activated with a 7 minute pulse of EDC/NHS. E149C GGBP (1.8 mg/ml) was injected at a 1:2 dilution in 1 0 MM sodium acetate pH 4.5 for 50 minutes at a flow rate of 1 μl/min. A pulse of 1 M ethanolamine pH 8.0 was injected to quench the reaction and remove nonspecifically bound protein.
All glucose injections were performed at 25° C. in the appropriate running buffer for the specific experiment. Glucose injections were 10 μl at a flow rate of 10 μl/min (1 minute contact time). Injections of different glucose concentrations were repeated three times and alternated between the protein and blank surfaces. The protein surface was regenerated by washing of the flow channel with running buffer followed by a running buffer injection. Sensorgrams were either blank surface subtracted or were double referenced by first subtracting the glucose injection over a blank surface from the corresponding glucose injection on the protein surface. A buffer injection over the blank surface was then subtracted from a buffer injection over the protein surface. The final sensorgram was obtained by subtracting the normalized buffer injection from the normalized glucose injection. […]
(Surface plasmon resonance follows binding to a sensor surface in real time, without labels.)

Data set [2] is described as follows: SPR response of thiol coupled E149C GGBP to a panel of sugars. The format is binding. The following applies: sugars at 100 μM, 3000 RU thiol-coupled surface. As to the method:
All glucose injections were performed at 25° C. in the appropriate running buffer for the specific experiment. Glucose injections were 10 μl at a flow rate of 10 μl/min (1 minute contact time). Injections of different glucose concentrations were repeated three times and alternated between the protein and blank surfaces. The protein surface was regenerated by washing of the flow channel with running buffer followed by a running buffer injection. Sensorgrams were either blank surface subtracted or were double referenced by first subtracting the glucose injection over a blank surface from the corresponding glucose injection on the protein surface. A buffer injection over the blank surface was then subtracted from a buffer injection over the protein surface. The final sensorgram was obtained by subtracting the normalized buffer injection from the normalized glucose injection.
FIG. 2 depicts the specificity of E149C mutated GGBP to bind glucose preferentially. The indicated sugars were injected at a concentration of 100 μM on a 3000 RU thiol-coupled E149C surface. Double referenced sensorgrams were averaged during the time frame corresponding between 10 and 50 seconds during the injection. Each injection was done in triplicate.

Where [3] appears, read: amine coupling, CM5 chip, 100 μM glucose.
[4] abbreviates: thiol coupling, CM5 chip, 100 μM glucose, blank subtracted or double referenced.

For “A213C GGBP H6: GGBP with cysteine substituted for alanine at position 213, histidine tag”, the “glucose detection by SPR using thiol-coupled mutants (FIG. 8)” value in data set [1] is on record as “signal-enhanced glucose detection”. Moreover, the “SPR Signal, Buffer” value in data set [1] (thiol coupling, CM5 chip) is −0.5 ± 0.4 RU. The “SPR Signal at Saturating Amounts of Glucose” value (from here on “SPR Signal … of Glucose”) in data set [1] (thiol coupling, CM5 chip, 1 mM glucose) is reported as 119 ± 0.4/ RU.

For “E149C GGBP H6: E. coli GGBP with cysteine substituted for glutamic acid at position 149, C-terminal six-histidine tag”, the “specificity to bind glucose preferentially over other sugars (FIG. 2)” value in data set [2] is recorded as “glucose binds more readily”. Also, the “glucose detection on C1 surface (FIG. 7)” value in data set [1] (100 μM glucose, 2000 RU amine-coupled surface) was “does not result in glucose binding”. In addition, the “glucose detection on C1 surface (FIG. 6)” value in data set [1] (100 μM glucose, 9000 RU thiol-coupled protein surface) is “Glucose detection is evident”. The “signal upon glucose binding, thiol-coupling in comparison to amino coupling or buffer only (FIG. 1)” value in data set [1] (100 µM glucose, one minute injection) is “significantly enhanced signal”. Also, the “SPR Signal … of Glucose” value in data set [1] (amine coupling, C1 chip, 1 mM glucose) is given as −4.9 ± 5.3/ RU; in data set [1] (setting [3]) it was 2.1 ± 5.5/ RU; in data set [1] (thiol coupling, C1 chip, 100 μM glucose), 10.2 ± 2.8/ RU; in data set [1] (setting [4]), 17.7 ± 0.5/ RU; in data set [1] (thiol coupling, CM5 chip, denatured surface (neg control), 100 μM glucose), 0 ± 4.1/ RU; in data set [1] (thiol coupling, CM5 chip, refolded protein surface, 100 μM glucose), 11.4 ± 1.0/ RU. In addition, the “SPR Signal, Buffer” value in data set [1] (amine coupling, C1 chip) is 0.4 ± 3.1 RU; in data set [1] (amine coupling, CM5 chip), 1.4 ± 3.1 RU; in data set [1] (thiol coupling, C1 chip), 0.8 ± 1.5 RU; in data set [1] (thiol coupling, CM5 chip), −0.5 ± 4.3 RU; in data set [1] (thiol coupling, CM5 chip, denatured surface (neg control)), −1.4 ± 2.2 RU; in data set [1] (thiol coupling, CM5 chip, refolded protein surface), −3.7 ± 1.5 RU. Moreover, the “glucose signal after denaturation (FIG. 3)” value in data set [1] (thiol-coupled surface, 1 M guanidine HCl overnight, HBS-EP injections) is “did not result in glucose signals”. The “glucose signal after renaturation (FIG. 3)” value in data set [1] (thiol-coupled surface, HBS-P and 1.5 mM CaCl2, continuous flow overnight) was “Glucose signals were restored”.

As to “G74C GGBP H6: GGBP with cysteine substituted for glycine at position 74, histidine tag”, the “glucose detection by SPR using thiol-coupled mutants (FIG. 8)” value in data set [1] is reported as “signal-enhanced glucose detection”. In data set [1] (thiol coupling, CM5 chip), the “SPR Signal, Buffer” value amounted to 2.7 ± 3.6 RU. Moreover, in data set [1] (setting [4]), the “SPR Signal … of Glucose” value is on record as 22.3 ± 0.2/ RU.

For the substance “K137C GGBP H6: GGBP with cysteine substituted for lysine at position 137, histidine tag”, the “SPR Signal, Buffer” value in data set [1] (thiol coupling, CM5 chip) stood at 4.8 ± 3.2 RU. Moreover, the “SPR Signal … of Glucose” value in data set [1] (setting [4]) was 9.5 ± 4.2/ RU.

Take “WT GGBP H6: wild type E. coli Galactose/Glucose Binding Protein with histidine tag, non-thiol negative control [reference compound]”: the “SPR Signal … of Glucose” value in data set [1] (setting [3]) was 5.9 ± 2.3/ RU. For the same substance, in data set [1] (amine coupling, CM5 chip), the “SPR Signal, Buffer” value came to 2.9 ± 1.5 RU.

These data come from patent US7326538B2, “Binding proteins as biosensors” (Becton Dickinson and Company, priority 2002, dated 2008).
